# How the values were obtained:
# U87-MG cells [1] = assay: Confocal imaging of intracellular thiols, U87-MG; assay type: cell-based, human; settings: BSO increased from 25 to 100 μM
# Experimental: To explore the capability of using TPE-SS-D5-cRGD as a specific bioprobe for monitoring intracellular thiol levels in cancer cells, the probe is incubated with U87-MG human glioblastoma and MCF-7 breast cancer cell lines. U87-MG cells with overexpressed integrin αvβ3 on cellular membrane was chosen as integrin-positive cancer cell, while breast cancer cell MCF-7 with a low level of integrin αvβ3 expression was used as the negative control. […] It should be noted that the probe could also be used for live cell imaging. To provide further evidence for thiol-induced disulfide bond cleavage as the trigger of fluorescence turn-on, the U87-MG cells were also pretreated with buthionine sulfoximine (BSO) before incubation with TPE-SS-D5-cRGD. BSO is an inhibitor of g-glutamylcysteine synthetase which can inhibit the cells from synthesizing GSH. The fluorescence of TPE-SS-D5-cRGD treated U87-MG cells decreases as the concentration of BSO increases from 25 to 100 μM.
# [2] = In vitro cytotoxicity studies; assay type: cell-based
# U87-MG cells [3] = assay: Confocal imaging of drug-induced apoptosis, U87-MG; assay type: cell-based, human
# Experimental: (§1) U87-MG, MCF-7 and 293T cells were cultured in the chambers (LAB-TEK, Chambered Coverglass System) at 37° C. After 80% confluence, the culture medium was removed and washed twice with PBS buffer. The probe in DMSO stock solution was then added to the chamber to reach a final concentration of 5 μM. In some experiments, the cells were pre-incubated with media containing cRGD (50 μM) or inhibitor (5 μM) prior to prodrug incubation. After incubation the prodrug at 37° C. for 2 h, the medium was replaced with fresh medium, after that the cells were washed twice with ice-cold PBS and the cell nucleus was living stained with DRAQ5 (Biostatus) following the standard protocol of the manufacturer. […] The images were analyzed by Image J 1.43 x program (developed by NIH, http://rsbweb.nih.gov/ij/).
# (§2) To explore the capability of using TPS-DEVD-Pt-cRGD as a targeted drug delivery system and a drug induced apoptosis imaging probe in cancer cells. […] After 2 h of incubation, the cells were treated with cisplatin or staurosporine which both can activate the cell apoptosis and monitored with confocal microscopy. […] As the incubation time elapses, the fluorescence of U87-MG increases gradually with the cellular apoptotic progress, which reaches a maximum at 6 h. […]
# [4] = Effect of ionic strength (NaCl) on emission; assay type: physicochemical; settings: NaCl 0 to 960 mM
# Description: We next studied the optical properties of our prodrug. The UV-vis absorption spectra of TPS-CH2N3 in THF and TPS-DEVD-Pt-cRGD in DMSO/PIPES (v/v=1/199) buffer were obtained. Both have similar absorption profiles with an obvious absorbance in the 320-440 nm range with a little blue shift after the modification of the AIE fluorogen. It is known that AIE fluorogen is non-fluorescent in good solvents but emits intensely in solid or as aggregates in poor solvents. […] As biosensing is often conducted in buffers, it is important to study the effect of ionic strength on the emission behavior of the prodrug. The experiments were performed with addition of sodium chloride into an aqueous solution of TPS-DEVD-Pt-cRGD (10 μM). […] TPS-DEVD-Pt-cRGD and its reduction product maintain an “off” state in the complex environment and thus have great potential to serve as a specific light-up apoptosis sensor for drug effect study with minimum background interference.
# The photoluminescence (PL) spectra of TPE-CH2NH2 and TPE-SS-D5-cRGD in DMSO and phosphate buffered saline (PBS, pH=7.4) mixtures (v/v=1/199) are shown in FIG. 13A. […] [12] The TPE-SS-D5-cRGD probe is almost non-fluorescent in the same medium (Φ=0.001), due to the easy intramolecular rotations of the TPE phenyl rings in aqueous media. […]
# Solubility in water = assay type: physicochemical; settings: DMSO/PIPEs v/v=1/199
# [5] = test system: normal U87-MG cell lysate; assay: Fluorescence in normal cell lysate; assay type: biochemical, human; settings: 5 μM probe, lysate of normal cells
# Experimental: (§3) To study the selectivity of the prodrug, we incubated ascorbic acid pretreated TPS-DEVD-Pt-cRGD (10 μM) with several proteins, including lysozyme, pepsin, bovine serum albumin (BSA) and trypsin under identical conditions. […] As there are many different kinds of proteins or enzymes inside the cells, we further obtained the cellular lysate of normal and apoptotic U87-MG cells, which were pretreated with commonly used cell apoptosis inducer staurosporine (STS, 2 μM) to activate the caspase-3 enzyme in the cells. The cell lysates were directly incubated with TPS-DEVD-Pt-cRGD (5 μM) and the fluorescence intensity at 485 nm was monitored over time.
# 293T cells = assay: Confocal imaging of drug-induced apoptosis, 293T; assay type: cell-based; settings: 5 μM probe, 6 h incubation, low integrin expression
# Experimental: as §1, §2
# MCF-7 cells = assay: Confocal imaging of drug-induced apoptosis, MCF-7; assay type: cell-based; settings: 5 μM probe, 6 h incubation, low integrin expression
# Experimental: as §1, §2
# [6] = test system: apoptotic U87-MG cell lysate; assay: Fluorescence in apoptotic cell lysate (STS pretreated); assay type: biochemical, human; settings: 5 μM probe, lysate of cells pretreated with STS 2 μM
# Experimental: as §3
# [7] = biological target: T1, recombinant human caspase-3 (Homo sapiens, UniProt P42574); assay: Enzymatic assay: fluorescence light-up on DEVD cleavage by caspase-3; assay type: biochemical
# T1 construct: purchased R&D Systems
# T1 sequence (P42574 29-175 limits assumed): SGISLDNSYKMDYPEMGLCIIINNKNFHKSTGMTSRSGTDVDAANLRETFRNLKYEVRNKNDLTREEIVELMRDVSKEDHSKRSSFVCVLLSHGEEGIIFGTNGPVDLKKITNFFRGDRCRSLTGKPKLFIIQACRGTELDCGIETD
# T1 sequence (P42574 176-277 limits assumed): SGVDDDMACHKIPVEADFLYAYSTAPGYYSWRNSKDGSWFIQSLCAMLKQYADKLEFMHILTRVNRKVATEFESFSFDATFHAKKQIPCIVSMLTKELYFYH
# Experimental: DMSO stock solutions of TPS-DEVD-Pt-cRGD were diluted with a mixture of DMSO and PIPES (v/v=1/199) to 10 μM. Next, each probe was incubated with ascorbic acid or caspase-3 at room temperature and the change of fluorescence intensity was measured. The PL spectra were collected from 420 to 650 nm under an excitation wavelength at 365 nm.
# To study the enzymatic response of TPS-DEVD-COOH, we performed in vitro enzymatic assays with recombinant human caspase-3. Mixtures of the ascorbic acid pretreated prodrug (10 μM) and caspases-3 (200 pM) were prepared and incubated in PIPES buffer. After 1 h incubation, the PL spectra were measured in the range from 425 to 650 nm.
# The fluorescence change of the TPS-DEVD-Pt-cRGD solution (10 μM) upon addition of ascorbic acid and caspase-3 enzyme was also monitored over time in a mixture of DMSO/PIPEs (v/v=1/199) buffer. […] We further studied the effect of caspase-3 concentration on the solution emission.
# [8] = test system: lysozyme, pepsin, bovine serum albumin (BSA) and trypsin; assay: Selectivity of fluorescence response against other proteins; assay type: biochemical; settings: 10 μM ascorbic acid pretreated probe, identical conditions as caspase-3
# Experimental: as §3
smiles,measurement,setting,value
"CCCCS(=N)(=O)CCC(N)C(=O)O (centres unmarked) [BSO, buthionine sulfoximine]",fluorescence of TPE-SS-D5-cRGD treated cells after BSO pretreatment,U87-MG cells [1],decreases
N=C(N)NCCC[C@@H]1NC(=O)[C@H](CCCCNC(=O)[C@H](CC(=O)O)NC(=O)[C@H](CC(=O)O)NC(=O)[C@H](CC(=O)O)NC(=O)[C@H](CC(=O)O)NC(=O)[C@H](CC(=O)O)NC(=O)CCSSCCC(=O)NCc2ccc(C(=C(c3ccccc3)c3ccccc3)c3ccccc3)cc2)NC(=O)[C@@H](Cc2ccccc2)NC(=O)[C@H](CC(=O)O)NC(=O)CNC1=O [TPE-SS-D5-cRGD],in vitro cytotoxicity,[2],biocompatible
CC(C)[C@H](NC(=O)[C@H](CCC(=O)O)NC(=O)[C@H](CC(=O)O)NC(=O)CCC(=O)[O][Pt-2]([NH3+])([NH3+])([Cl])([Cl])[O]C(=O)CCC(=O)NCCCC[C@@H]1NC(=O)[C@@H](Cc2ccccc2)NC(=O)[C@H](CC(=O)O)NC(=O)CNC(=O)[C@H](CCCNC(=N)N)NC1=O)C(=O)N[C@@H](CC(=O)O)C(=O)N[C@@H](Cc1cn(Cc2ccc(C3=C(c4ccccc4)C(c4ccccc4)=C(c4ccccc4)[Si]3(C)C)cc2)nn1)C(N)=O [TPS-DEVD-Pt-cRGD],incubation time at which cell fluorescence reaches maximum,"U87-MG cells [3]; 5 μM probe, real-time imaging",6 h
same,cell fluorescence after pretreatment with free cRGD or/and caspase-3 inhibitor,U87-MG cells [3]; cRGD 50 μM or inhibitor 5 μM before probe,weak fluorescence
same,change of fluorescence with NaCl,[4],Almost no change
same,solubility in water,Solubility in water,good solubility in water
same,fluorescence intensity at 485 nm (stability to cellular proteins),[5],minimum change
same,cell fluorescence,293T cells,weak fluorescence signal
same,cell fluorescence,MCF-7 cells,weak fluorescence signal
same,fluorescence intensity at 485 nm over time,[6],increases quickly
same,fluorescence increase over intrinsic emission with caspase-3,"[7]; 10 μM probe pretreated with ascorbic acid, DMSO/PIPES v/v=1/199, PL at 485 nm, 60 min",28 fold
same,time to fluorescence plateau after caspase-3 addition,"[7]; 10 μM probe, ascorbic acid and caspase-3, DMSO/PIPES v/v=1/199",60 min
same,detection limit for caspase-3,"[7]; three times sigma method, 10 μM probe, 1 h",1 pM
same,fluorescence intensity with other proteins,[8],remain low
